From ChEMBL document CHEMBL4351013, “Carboxamides vs. methanimines: Crystal structures, binding interactions, photophysical studies, and biological evaluation of (indazole-5-yl)methanimines as monoamine oxidase B and acetylcholinesterase inhibitors” (Eur J Med Chem, 2019)

Tests used:
[1] = target: Cholinesterase (Homo sapiens) (UniProt P06276); assay: Inhibition of BuChE in human serum using S-butyrylthiocholine iodide as substrate at 100 uM preincubated with enzyme for 10 mins followed by substrate addition measured for 15 mins by Ellman's method relative to control; format: cell-free
Homo sapiens = species: Homo sapiens; assay: Selectivity index, ratio of IC50 for human recombinant MAO-A expressed in baculovirus infected BTI-TN-5B1-4 cells to IC50 for human recombinant MAO-B expressed in baculovirus infected BTI-TN-5B1-4 cells
[2] = target: T1, Amine oxidase [flavin-containing] B (Homo sapiens, UniProt P27338); assay: biochemical; format: cell-based, BTI-TN-5B1-4
T1 sequence (P27338 whole entry): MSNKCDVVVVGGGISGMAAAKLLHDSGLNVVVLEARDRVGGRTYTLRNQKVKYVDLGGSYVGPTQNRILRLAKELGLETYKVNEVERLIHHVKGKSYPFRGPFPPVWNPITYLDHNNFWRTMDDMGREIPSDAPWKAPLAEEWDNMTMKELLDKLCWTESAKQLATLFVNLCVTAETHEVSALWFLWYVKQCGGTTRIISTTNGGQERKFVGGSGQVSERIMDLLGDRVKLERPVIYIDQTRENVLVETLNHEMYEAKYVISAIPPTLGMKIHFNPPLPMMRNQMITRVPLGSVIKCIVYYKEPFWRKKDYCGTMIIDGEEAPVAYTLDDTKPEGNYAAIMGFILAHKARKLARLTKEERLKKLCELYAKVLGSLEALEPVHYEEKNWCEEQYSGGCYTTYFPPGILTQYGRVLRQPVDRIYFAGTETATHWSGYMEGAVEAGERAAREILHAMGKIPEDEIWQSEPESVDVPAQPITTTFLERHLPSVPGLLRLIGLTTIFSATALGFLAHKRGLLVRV
Description: Inhibition of human recombinant MAO-B expressed in baculovirus infected BTI-TN-5B1-4 insect cells assessed as decrease in H2O2 production using p-tyramine as substrate incubated for 20 mins by horse-radish peroxidase/amplex red-based fluorescence method

[3] = target: T2, Amine oxidase [flavin-containing] A (Homo sapiens, UniProt P21397); assay: biochemical
T2 sequence (P21397 whole entry): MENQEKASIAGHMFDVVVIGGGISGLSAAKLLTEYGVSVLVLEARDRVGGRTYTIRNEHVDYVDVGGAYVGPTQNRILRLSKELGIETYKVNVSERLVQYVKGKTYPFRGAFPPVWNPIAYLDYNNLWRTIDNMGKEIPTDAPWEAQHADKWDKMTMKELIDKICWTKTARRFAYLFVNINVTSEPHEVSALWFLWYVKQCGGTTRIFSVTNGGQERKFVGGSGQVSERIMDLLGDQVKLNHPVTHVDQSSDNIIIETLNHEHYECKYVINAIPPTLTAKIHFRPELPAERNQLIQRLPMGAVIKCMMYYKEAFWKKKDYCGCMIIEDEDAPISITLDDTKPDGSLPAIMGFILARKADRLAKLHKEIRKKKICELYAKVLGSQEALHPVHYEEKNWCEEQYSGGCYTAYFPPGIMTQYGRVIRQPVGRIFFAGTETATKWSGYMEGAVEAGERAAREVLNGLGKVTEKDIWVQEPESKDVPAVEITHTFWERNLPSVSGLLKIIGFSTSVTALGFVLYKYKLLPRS
Description: Inhibition of human recombinant MAO-A expressed in baculovirus infected BTI-TN-5B1-4 insect cells assessed as decrease in H2O2 production using p-tyramine as substrate incubated for 20 mins by horse-radish peroxidase/amplex red-based fluorescence method

Acetylcholinesterase = Acetylcholinesterase (Homo sapiens, UniProt P22303); assay: Inhibition of AChE in human erythrocytes using acetylthiocholine iodide as substrate preincubated with enzyme for 10 mins followed by substrate addition measured for 15 mins by Ellman's method; format: cell-based
[4] = target: T1, Amine oxidase [flavin-containing] B; assay: Potency index, ratio of selegiline IC50 to compound IC50 for human recombinant MAO-B expressed in baculovirus infected BTI-TN-5B1-4 insect cells using p-tyramine as substrate
HepG2 = assay: Cytotoxicity against human HepG2 cells assessed as mitochondrial dysfunction at 25 to 50 uM; format: cell-based; details: hepg2, 50 µM
[5] = Cytotoxicity against human HepG2 cells assessed as cell viability at 50 uM measured after 72 hrs by MTT assay relative to control; format: cell-based; details: read-out: Activity
[6] = Stability of the compound in dry MeOH assessed as dimers at 1 mM measured under daylight exposure for >96 hrs by LC/ESI-MS analysis; format: physicochemical; details: 1000 µM
[7] = Stability of the compound in MeOH assessed as compound purity level at 50 uM measured under daylight exposure for 76 days by LC/ESI-MS analysis; format: physicochemical; details: methanol; read-out: Stability
[8] = Stability of the compound in dry MeOH at 1 mM measured under daylight for 62 days by LC/ESI-MS analysis; format: physicochemical; details: 1488 h, 1000 µM
[9] = Stability of the compound in ACN at 50 uM measured under daylight exposure for 76 days by UV-visible spectra analysis; format: physicochemical; details: 1824 h
[10] = Stability of the compound in MeOH at 50 uM measured under daylight exposure for 3 days by UV-visible spectra analysis; format: physicochemical; details: 72 h
[11] = Stability of the compound in DMSO at 50 uM measured under daylight exposure for 76 days by UV-visible spectra analysis; format: physicochemical; details: 1824 h
[12] = Stability of the compound in dry MeOH assessed as compound crystallization at 10 mM measured under daylight for 43 hrs by LC/ESI-MS analysis; format: physicochemical; details: 10000 µM
[13] = Stability of the compound in dry MeOH at 1 to 10 mM measured under daylight exposure for 24 to 96 hrs by LC/ESI-MS analysis; format: physicochemical; details: 10000 µM
[14] = target: T1, Amine oxidase [flavin-containing] B; assay: Competitive inhibition of human recombinant MAO-B expressed in baculovirus infected BTI-TN-5B1-4 insect cells using p-tyramine as substrate by Lineweaver-Burk plot analysis
[15] = target: T1, Amine oxidase [flavin-containing] B; assay: Competitive inhibition of human recombinant MAO-B expressed in baculovirus infected BTI-TN-5B1-4 insect cells using p-tyramine as substrate by Dixon- plot analysis

Chain of Cholinesterase (Homo sapiens) (P06276 whole entry): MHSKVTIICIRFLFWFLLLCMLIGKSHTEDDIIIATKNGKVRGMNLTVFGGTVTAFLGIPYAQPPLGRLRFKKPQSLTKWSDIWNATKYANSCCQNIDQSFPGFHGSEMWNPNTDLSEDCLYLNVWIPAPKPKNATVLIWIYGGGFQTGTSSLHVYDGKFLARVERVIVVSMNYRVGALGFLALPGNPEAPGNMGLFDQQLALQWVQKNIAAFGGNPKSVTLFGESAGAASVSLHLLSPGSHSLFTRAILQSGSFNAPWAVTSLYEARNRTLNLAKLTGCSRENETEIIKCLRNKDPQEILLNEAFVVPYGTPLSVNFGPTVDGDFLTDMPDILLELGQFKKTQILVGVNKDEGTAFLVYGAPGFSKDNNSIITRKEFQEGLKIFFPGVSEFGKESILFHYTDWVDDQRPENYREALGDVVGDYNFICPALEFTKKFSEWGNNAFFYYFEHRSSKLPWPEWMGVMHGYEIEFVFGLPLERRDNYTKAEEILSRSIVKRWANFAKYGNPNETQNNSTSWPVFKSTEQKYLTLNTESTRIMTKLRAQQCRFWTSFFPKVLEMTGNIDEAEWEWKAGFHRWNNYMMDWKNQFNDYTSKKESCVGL
Chain of Acetylcholinesterase (P22303 whole entry): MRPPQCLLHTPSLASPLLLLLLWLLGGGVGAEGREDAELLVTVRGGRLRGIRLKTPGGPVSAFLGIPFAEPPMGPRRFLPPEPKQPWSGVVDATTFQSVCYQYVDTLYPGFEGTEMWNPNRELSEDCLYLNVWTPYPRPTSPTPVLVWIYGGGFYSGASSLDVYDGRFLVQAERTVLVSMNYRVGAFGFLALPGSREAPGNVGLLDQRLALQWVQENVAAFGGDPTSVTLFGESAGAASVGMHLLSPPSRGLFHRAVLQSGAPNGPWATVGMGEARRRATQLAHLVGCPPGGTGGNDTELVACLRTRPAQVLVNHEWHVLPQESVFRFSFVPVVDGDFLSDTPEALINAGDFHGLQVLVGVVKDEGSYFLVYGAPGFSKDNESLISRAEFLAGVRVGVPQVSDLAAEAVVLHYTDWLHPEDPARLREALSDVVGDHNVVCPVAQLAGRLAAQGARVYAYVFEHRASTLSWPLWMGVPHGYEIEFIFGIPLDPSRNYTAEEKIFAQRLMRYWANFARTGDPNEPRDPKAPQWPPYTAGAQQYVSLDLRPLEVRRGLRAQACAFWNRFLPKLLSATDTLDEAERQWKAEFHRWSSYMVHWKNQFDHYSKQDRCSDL

SMILES | inhibition [1] | Ratio IC50 (Homo sapiens) | Ki [2] | IC50 [3] | further results
O=C(Nc1ccc(Cl)c(F)c1)c1ccc2[nH]ncc2c1 | 2.23% | 15000 | 0.29 nM |  | 
O=C(Nc1ccc(F)c(Cl)c1)c1ccc2[nH]ncc2c1 | 7.21% |  |  |  | 
Fc1ccc(/N=C/c2ccc3[nH]ncc3c2)cc1Cl | 4.56% | 4760 | 0.93 nM | > 10000 nM | 
Fc1cc(/N=C/c2ccc3[nH]ncc3c2)ccc1Cl | 6.97% | 5240 | 0.84 nM |  | 
COCCn1ncc2cc(/C=N/c3ccc(Cl)c(Cl)c3)ccc21 | 2.27% | 3160 | 0.57 nM | > 10000 nM | IC50 [2]: 1.29 nM
Cn1ncc2cc(C(=O)Nc3ccc(Cl)c(Cl)c3)ccc21 | 11.1% |  |  |  | IC50 (Acetylcholinesterase): 78300 nM
O=C(Nc1ccc(Cl)c(Cl)c1)c1ccc2[nH]ncc2c1 | 11.3% | 17100 |  |  | Ratio IC50 [4]: 9; Activity (HepG2): Non-Toxic; viability at 72 h, 50 µM [5]: 66.3%
Clc1cc(/N=C/c2ccc3[nH]ncc3c2)cnc1Cl | 9.64% | > 7810 | 0.57 nM | > 10000 nM | Ratio IC50 [4]: 4.3; Stability [6]: Unstable; remaining at 1824 h, 50 µM [7]: 68.1%; Stability [8]: Unstable; Stability [9]: Stable; Stability [10]: Stable; Stability [11]: Stable; Stability [12]: Unstable; IC50 [2]: 1.28 nM; Stability [13]: Stable
Cn1ncc2cc(/C=N/c3ccc(Cl)c(Cl)c3)ccc21 | 8.57% | 9710 | 0.46 nM | > 10000 nM | inhibition (INH) [14]: Active; Ki [15]: 0.63 nM
O=C(Nc1cnc(Cl)c(Cl)c1)c1ccc2[nH]ncc2c1 | 9.23% | > 1840 | 2.39 nM | > 10000 nM | 
Clc1ccc(/N=C/c2ccc3[nH]ncc3c2)cc1Cl | 9.01% |  |  | > 10000 nM | Stability [9]: Stable; Activity (HepG2): Non-Toxic; Stability [11]: Stable; viability at 72 h, 50 µM [5]: 80.6%
COCCn1ncc2cc(C(=O)Nc3ccc(Cl)c(Cl)c3)ccc21 | 9.58% | > 2660 |  |  | Ki [3]: 0.48 nM
